According to PMC6718453 (Frontiers in Aging Neuroscience, 2019):
≈ marks a conversion by molar mass, not a printed value.

Biological target: acetylcholinesterase (AChE)

O=C(/C=C/C=C/c1ccc2c(c1)OCO2)N1CCCCC1 [piperine]
IC50 ± SEM: 76.6 ± 0.08 µg/mL (≈ 268 µM)
